System: HIV with mutations in the HIV protease sequence
Assay: Phenotypic fold resistance to protease inhibitors, protease mutations 84A/84L/84C/54M/54L/54V in a background (Examples 8-13)
Assay type: cell-based, HIV-1
Procedure: As is the case with the genotyping assays, the recombinant virus assay starts with the amplification of viral target sequences by means of PCR. The amplicons are incorporated into a proviral laboratory clone with sequences homologous to those present in the amplicon deleted. This generates a stock of chimeric viruses. The viruses are tested for their ability to grow in the presence of different concentrations of drugs. Results are obtained by calculating IC50 values for each inhibitor and by reporting the results as IC50 values, expressed in μM concentrations, or by computing the ratio of the IC50 values found for the chimeric virus to the IC50 values found for a wild type susceptible laboratory virus tested in parallel. In the latter case, resistance is expressed as “fold-resistance” compared to a wild-type susceptible HIV-1 strain. In order to meet the need for high-volume testing and a short turn-around time for an individual test, the latest generation of phenotyping assays has undergone further modifications. The use of reporter gene systems for susceptibility testing allows the implementation of laboratory automation and standardization. See Pauwels, et al., J. Virol. Methods 20, 309-321 (1998); Paulous, S., et al., International Workshop on HIV Drug Resistance, Treatment Strategies and Eradication, St. Petersburg, Fla., USA. Abstr. 46 (1997); and Deeks, S. G., et al., 2nd International Workshop on HIV Drug Resistance and Treatment Strategies, Lake Maggiore, Italy. Abstr. 53 (1998).
The ANTIVIROGRAM® assay (Virco) (WO 97/27480) is based on homologous recombination of patient derived HIV-1 gag/PR/RT sequences into a proviral HIV-1 clone correspondingly deleted for the gag/PR/RT sequences. See Pauwels, et al., J. Virol. Methods 20, 309-321 (1998). A similar assay (Phenosense ViroLogic) is based on enzymatic ligation of patient-derived PR/RT sequences into a correspondingly deleted proviral vector carrying an indicator gene, luciferase, inserted in the deleted HIV-1 envelope gene. See Deeks, S. G., et al., 2nd International Workshop on HIV Drug Resistance and Treatment Strategies, Lake Maggiore, Italy. Abstr. 53 (1998). Hertogs et al. Antimicrob. Agents Chemother. 44(3) 568-573 (2000) the disclosures of which are herein incorporated by reference.
The methods of monitoring HIV-1 drug resistance, may also be used in combination with phenotypic drug resistance testing of viral isolates. For example, in one embodiment, a phenotypic test is utilized that is based upon the construction of chimeric HIV-1 strains composed of the protease (PR) and reverse transcriptase (RT) gene sequences which are isolated and amplified from the patient viral RNA. These strains may subsequently be recombined inside CD4+ T cells with a standard laboratory isogenic (HXB2) HIV-1 DNA construct from which the PR/RT gene sequences were deleted. The recombinant strains may then be grown in the presence of the above-mentioned antiviral drugs and the susceptibility of the viral isolates may be expressed as fold-change value of the IC50 of the drug on the patient isolates over the IC50 of the drug on a wild-type laboratory reference strain.

SMILES: CC(C)c1nc(CN(C)C(=O)N[C@H](C(=O)N[C@@H](Cc2ccccc2)C[C@H](O)[C@H](Cc2ccccc2)NC(=O)OCc2cncs2)C(C)C)cs1 [Ritonavir, ritonavir]
- mean fold increase in resistance (Table 9 #1, protease genotype WT): 0.6 fold
- mean fold increase in resistance (Table 9 #2, protease genotype 10I): 1.15 fold
- mean fold increase in resistance (Table 9 #3, protease genotype 46I): 0.8 fold
- mean fold increase in resistance (Table 9 #4, protease genotype 46I + 84V): 4.6 fold
- mean fold increase in resistance (Table 9 #5, protease genotype 46I + 84A): 51.8 fold
- mean fold increase in resistance (Table 9 #6, protease genotype 10I + 46I): 1.5 fold
- mean fold increase in resistance (Table 9 #7, protease genotype 10I + 46I + 84V): 11.9 fold
- mean fold increase in resistance (Table 9 #8, protease genotype 10I + 46I + 84A): 77.3 fold
- mean fold increase in resistance (Table 9 #9, protease genotype 10L/I + 46I + 84A): 114 fold
- mean fold increase in resistance (Table 9 #10, protease genotype 10I + 46I + 84A): 44.5 fold
- mean fold increase in resistance (Table 9 #11, protease genotype 46I + 71V): 1.4 fold
- mean fold increase in resistance (Table 9 #12, protease genotype 46I + 71V + 84V/I): 1.8 fold
- mean fold increase in resistance (Table 9 #13, protease genotype 46I + 71V + 84A): 102.2 fold
- mean fold increase in resistance (Table 9 #14, protease genotype 10F + 46I + 71V): 4.1 fold
- mean fold increase in resistance (Table 9 #15, protease genotype 10I + 46I + 71V + 84V): 45.6 fold
- mean fold increase in resistance (Table 9 #16, protease genotype 10I + 46I + 71V + 84A): 114.9 fold
- mean fold increase in resistance (Table 9 #17, protease genotype 10V + 46I + 71T + 84A): 91.9 fold
- mean fold increase in resistance (Table 9 #18, protease genotype 10I + 46I + 71V + 77I): 1.65 fold
- mean fold increase in resistance (Table 9 #19, protease genotype 10I + 46I + 71V + 77I + 84V): 3.1 fold
- mean fold increase in resistance (Table 9 #20, protease genotype 10I + 46I + 71V + 77I + 84A): 121.3 fold
- mean fold increase in resistance (Table 9 #21, protease genotype 10I + 33L/I + 46I + 71V + 77V/I + 84A): 38.6 fold
- mean fold increase in resistance (Table 10 #1, protease genotype 10I + 36I + 71V): 1.2 fold
- mean fold increase in resistance (Table 10 #2, protease genotype 10I + 36I + 71I + 84V): 1.5 fold
- mean fold increase in resistance (Table 10 #3, protease genotype 10I + 36I + 71I + 84L): 0.8 fold
- mean fold increase in resistance (Table 11 #1, protease genotype WT): 0.6 fold
- mean fold increase in resistance (Table 11 #2, protease genotype 84V): 2.4 fold
- mean fold increase in resistance (Table 11 #3, protease genotype 84C): 2.9 fold
- mean fold increase in resistance (Table 11 #4, protease genotype 10I): 1.2 fold
- mean fold increase in resistance (Table 11 #5, protease genotype 10I + 84V): 6.5 fold
- mean fold increase in resistance (Table 11 #6, protease genotype 10I + 84C): 5.4 fold
- mean fold increase in resistance (Table 11 #7, protease genotype 77I): 0.4 fold
- mean fold increase in resistance (Table 11 #8, protease genotype 77I + 84V): 5.0 fold
- mean fold increase in resistance (Table 11 #9, protease genotype 77I + 84C): 2.8 fold
- mean fold increase in resistance (Table 11 #10, protease genotype 77I + 84C): 3.2 fold
- mean fold increase in resistance (Table 11 #11, protease genotype 10I + 24I + 36I + 46I + 71V + 84C): 47 fold
- Fold change in IC50 (Table 12, V19263, genotype 77I): 0.4 fold
- Fold change in IC50 (Table 12, V20160, genotype WT): 0.6 fold
- Fold change in IC50 (Table 12, V021667, genotype 10I): 1.2 fold
- Fold change in IC50 (Table 12, V030496, genotype 10I + 77I): 0.5 fold
- Fold change in IC50 (Table 12, V048869, genotype 10I + 54M + 77I + 90M): 20.0 fold
- Fold change in IC50 (Table 12, V048872, genotype 33F + 54M + 77I + 90M): 8.7 fold
- Fold change in IC50 (Table 12, V048873, genotype 33F + 54M + 77I + 90M): 11.4 fold
- Fold change in IC50 (Table 12, V048877, genotype 10I + 33F + 77I + 90M): 20.5 fold
- Fold change in IC50 (Table 12, V048878, genotype 10I + 33F + 54M + 71V + 77I + 90M): 17.2 fold
- Fold change in IC50 (Table 12, V048879, genotype 10I + 33F + 54M + 71V + 77I + 90M): 74.0 fold
- Fold change in IC50 (Table 12, V048880, genotype 10I + 33F + 77I + 90M): 3.6 fold
- Fold change in IC50 (Table 12, V052940, genotype 71V): 0.4 fold
- Fold change in IC50 (Table 12, V052942, genotype 10I + 71V): 0.6 fold
- Fold change in IC50 (Table 12, V052943, genotype 10I + 90M): 1.8 fold
- Fold change in IC50 (Table 12, V052944, genotype 10I + 90M): 1.5 fold
- Fold change in IC50 (Table 12, V052945, genotype 77I + 90M): 1.9 fold
- Fold change in IC50 (Table 12, V052946, genotype 71V + 90M): 2.0 fold
- Fold change in IC50 (Table 12, V052947, genotype 10I + 77I + 90M): 6.9 fold
- Fold change in IC50 (Table 12, V052948, genotype 10I + 71V + 90M): 10.5 fold
- Fold change in IC50 (Table 12, V052949, genotype 10I + 71V + 77I + 90M): 2.3 fold
- Fold change in IC50 (Table 12, V052950, genotype 33F): 1.5 fold
- Fold change in IC50 (Table 12, V052951, genotype 33F + 77I): 0.3 fold
- Fold change in IC50 (Table 12, V052953, genotype 10I + 33F + 77I): 1.1 fold
- Fold change in IC50 (Table 12, V052954, genotype 33F + 77I + 90M): 2.2 fold
- Fold change in IC50 (Table 12, V052955, genotype 33F + 71V + 90M): 77.9 fold
- Fold change in IC50 (Table 12, V052977, genotype 10I + 33F + 54M): 35.5 fold
- Fold change in IC50 (Table 12, V052978, genotype 10I + 33F + 54M + 71V + 90M): 17.9 fold
- Fold change in IC50 (Table 12, V052979, genotype 10I + 54M): 20.0 fold
- Fold change in IC50 (Table 12, V052980, genotype 10I + 54M + 90M): 4.1 fold
- Fold change in IC50 (Table 12, V052981, genotype 10I + 54M + 71V + 90M): 9.4 fold
- Fold change in IC50 (Table 12, V052982, genotype 10I + 54M + 71V + 77I + 90M): 13.4 fold
- Fold change in IC50 (Table 12, V053832, genotype 10I + 33F): 2.9 fold

— US8574831B2, “Mutational profiles in HIV-1 reverse transcriptase correlated with phenotypic drug resistance” (Virco N.V., priority 2000, dated 2013)
